Here are results for 15 compounds from paper PMC7144264 (Journal of Enzyme Inhibition and Medicinal Chemistry, 2020).

pIC50, pKi: −log10 of the molar value. “Also recorded” adds a separate entry of the source.

Data set [1] addresses T1, rat brain FAAH (Rattus norvegicus, UniProt P97612).
T1 construct: hydrolysis of 0.5 µM [^3H]AEA by rat brain homogenates; from tissue; host or cells: rat brain (minus cerebella), washed membrane homogenate
T1 sequence (P97612 1-579): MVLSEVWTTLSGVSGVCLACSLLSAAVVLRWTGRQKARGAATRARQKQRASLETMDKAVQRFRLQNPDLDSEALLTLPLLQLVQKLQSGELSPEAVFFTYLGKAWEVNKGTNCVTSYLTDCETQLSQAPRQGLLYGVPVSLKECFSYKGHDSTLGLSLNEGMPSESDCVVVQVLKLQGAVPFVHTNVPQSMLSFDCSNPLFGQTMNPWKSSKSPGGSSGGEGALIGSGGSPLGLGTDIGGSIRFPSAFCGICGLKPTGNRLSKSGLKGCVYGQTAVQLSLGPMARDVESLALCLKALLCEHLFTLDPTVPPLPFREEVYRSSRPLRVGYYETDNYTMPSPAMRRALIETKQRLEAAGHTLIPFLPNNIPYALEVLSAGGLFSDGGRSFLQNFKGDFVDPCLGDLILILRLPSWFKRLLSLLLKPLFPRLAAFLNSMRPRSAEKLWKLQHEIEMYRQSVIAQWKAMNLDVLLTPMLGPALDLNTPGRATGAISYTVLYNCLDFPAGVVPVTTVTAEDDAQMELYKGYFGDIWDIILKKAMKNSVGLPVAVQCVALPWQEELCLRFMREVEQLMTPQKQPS
The experiment in a line: FAAH assay: hydrolysis of [3H]AEA by rat brain homogenates. The conditions noted are these: for pIC50: 0.5 µM [3H]AEA, rat brain homogenates, read-out: IC50 for inhibition of the hydrolysis of [3H]AEA. It counts as biochemical. The protocol:
Frozen (−80 °C) brains (minus cerebella) from adult Wistar or Sprague-Dawley rats were thawed and homogenised in 20 mM HEPES, 1 mM MgCl2, pH 7.0. The homogenates were then centrifuged at ∼35000 x g for 20 min at 4 °C followed by washing (by recentrifugation and by resuspension in the buffer) twice before incubation at 37 °C for 15 min in order to hydrolyse all endogenous FAAH substrates. After a further centrifugation, pellets were resuspended in 50 mM Tris-HCl buffer, pH 7.4, containing 1 mM EDTA and 3 mM MgCl2, and frozen at −80 °C in aliquots until used for the assay. For the FAAH assay, test compounds, homogenates and [^3H]AEA (diluted with non-radioactive AEA to give a substrate concentration of 0.5 μM) in 10 mM Tris- HCl, 1 mM EDTA, pH 7.4, containing 1% w/v fatty acid-free bovine serum albumin were incubated for 10 min at 37 °C. Activated charcoal in 0.5 M HCl was added to adsorb the unmetabolized [^3H]AEA and the samples were mixed and left at r.t. for ∼30 min. Following centrifugation at 2000 g for 10 min, aliquots of the supernatants, containing the [^3H]ethanolamine produced by hydrolysis of [^3H]AEA, were analysed for tritium content by liquid scintillation spectroscopy with quench correction. Blank values were obtained by the use of buffer rather than homogenate.
Data were expressed as % of vehicle (ethanol) control and analysed using the algorithm log(inhibitor) vs. response – variable slope (four parameters) built into the GraphPad Prism computer programme v8.3 for the Macintosh (GraphPad Software Inc., San Diego, CA). The programme reports 95% confidence limits (profile likelihood) for the IC50 values and these presented in the results.

Data set [2] addresses T1, rat brain FAAH. The conditions noted are these: removal of the methyl group at the C-2 carbon atom; cited from earlier work.
Data set [3] concerns the target T2, ovine COX-1 (Ovis aries, UniProt P05979).
T2 sequence (P05979 25-600): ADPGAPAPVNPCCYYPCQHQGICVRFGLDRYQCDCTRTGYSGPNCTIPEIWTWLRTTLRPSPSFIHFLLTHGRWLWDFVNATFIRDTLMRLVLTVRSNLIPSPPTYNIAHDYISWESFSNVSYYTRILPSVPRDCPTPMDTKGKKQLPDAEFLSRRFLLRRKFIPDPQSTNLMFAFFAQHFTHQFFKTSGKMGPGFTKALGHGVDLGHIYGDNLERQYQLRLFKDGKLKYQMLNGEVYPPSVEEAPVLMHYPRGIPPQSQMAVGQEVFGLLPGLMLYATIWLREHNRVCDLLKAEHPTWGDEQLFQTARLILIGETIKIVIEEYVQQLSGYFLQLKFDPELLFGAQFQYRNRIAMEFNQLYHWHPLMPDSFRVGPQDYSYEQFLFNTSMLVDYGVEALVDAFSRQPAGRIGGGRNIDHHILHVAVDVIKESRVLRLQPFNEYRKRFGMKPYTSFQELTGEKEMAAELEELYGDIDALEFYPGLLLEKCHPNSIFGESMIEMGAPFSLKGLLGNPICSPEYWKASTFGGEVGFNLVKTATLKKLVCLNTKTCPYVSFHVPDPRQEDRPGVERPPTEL
Put plainly: COX-1 assay, oxygen electrode (cyclooxygenation of substrate). Also on record: purchased Cayman Chemical Co. 60100. It counts as biochemical. Conditions: 10 µM AA. How it is done:
(§1) The assay was performed essentially according to the method of Meade et al[21]. An oxygen electrode chamber with integral stirring (Oxygraph System, Hansatech Instruments, King ´s Lynn, U.K.) was calibrated daily to ambient temperature and air pressure. The assay buffer contained 0.1 M Tris-HCl buffer pH 7.4, 1 μM haematin, 2 mM phenol, 5 mM EDTA, 10 μM substrate (AA or 2-AG) in a final assay volume was 2 ml. After addition of test compound, a baseline was established for 5 min before initiation of reaction by addition of 200 units ovine COX-1 or human recombinant COX-2. The change in oxygen consumption as a measurement of enzyme activity was monitored for approximately 5 min.

The target of data set [4] is T3, human recombinant COX-2 (Homo sapiens, UniProt P35354).
T3 sequence (P35354 18-604): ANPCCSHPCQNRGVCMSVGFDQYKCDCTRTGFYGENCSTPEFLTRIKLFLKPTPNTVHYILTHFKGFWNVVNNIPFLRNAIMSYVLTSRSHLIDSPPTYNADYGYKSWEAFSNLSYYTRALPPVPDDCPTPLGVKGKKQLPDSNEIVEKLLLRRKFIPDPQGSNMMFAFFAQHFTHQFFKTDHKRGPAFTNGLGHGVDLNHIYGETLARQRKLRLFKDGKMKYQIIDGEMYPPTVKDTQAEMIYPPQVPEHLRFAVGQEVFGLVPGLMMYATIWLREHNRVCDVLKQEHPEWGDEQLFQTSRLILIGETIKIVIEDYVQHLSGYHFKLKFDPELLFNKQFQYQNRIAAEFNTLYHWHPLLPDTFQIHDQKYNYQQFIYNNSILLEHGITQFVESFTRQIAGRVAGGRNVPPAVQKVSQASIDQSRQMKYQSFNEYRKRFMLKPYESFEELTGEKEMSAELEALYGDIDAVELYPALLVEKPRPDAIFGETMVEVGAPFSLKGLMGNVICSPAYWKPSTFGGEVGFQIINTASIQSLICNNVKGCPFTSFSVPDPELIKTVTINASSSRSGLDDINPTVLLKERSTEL
Put plainly: COX-2 assay, oxygen electrode (cyclooxygenation of AA, 2-AG or AEA). The conditions noted are these: for inhibition of AA cyclooxygenation by COX-2: 10 µM AA. The format is biochemical. Also on record: purchased Cayman Chemical Co. 60122. The protocol:
as §1

The target in data set [5] is T1, rat brain FAAH. The experiment in a line: FAAH assay: hydrolysis of [3H]AEA by rat brain homogenates. The format is biochemical. Conditions: kinetics of inhibition of rat FAAH, mixed-type model.
The next data set has as its system FAAH. Also on record: method as in PMID 25757568. The conditions noted are these: cited from earlier work.
Details of data set [6]: method as in PMID 25757568. The conditions noted are these: cited from earlier work.
The test system of a further data set is COX-2. Also on record: method as in PMID 25757568. Conditions: cited from earlier work.
In a further data set the test system is COX-1. Also on record: method as in PMID 25757568. Conditions: cited from earlier work.
Data set [7] concerns the target T3, human recombinant COX-2. Conditions: cited from earlier work.
Data set [8] concerns the target T2, ovine COX-1. The conditions noted are these: read-out: concentration reducing the rate of cyclooxygenation to about half; COX-1, AA as substrate; cited from earlier work.
The conditions of data set [9]: mouse; cited from earlier work.
The conditions of data set [10]: in vivo; cited from earlier work.

`CC(C)Cc1ccc(C(C)C(=O)Nc2ncccc2I)cc1` (centres unmarked) [Ibu-AM69, N-(3-Iodopyridin-2-yl)-2-(4-isobutylphenyl)propanamide]: the pIC50 at rat brain FAAH [1] was 6.92.
For `Cc1cccnc1NC(=O)Cc1ccc(CC(C)C)cc1` [Ibufenac-AM1], the “reduction of FAAH inhibitory potency relative to Ibu-AM5” value on rat brain FAAH [2] is listed as “roughly 60 fold”.
Regarding `Cc1cccnc1NC(=O)C1(c2ccc(CC(C)C)cc2)CC1` [Ibu-AM73], the pIC50 at rat brain FAAH [1] was 5.39.
On to `CC(C)Cc1ccc(C(C)C(=O)Nc2ncccc2O)cc1` (centres unmarked) [Ibu-AM70, N-(3-Hydroxypyridin-2-yl)-2-(4-isobutylphenyl)propenamide], for which the pIC50 at rat brain FAAH [1] was 5.57.
As to `CC(C)Cc1ccc(C(C)C(=O)Nc2ncccc2Br)cc1` (centres unmarked) [Ibu-AM68, N-(3-Bromopyridin-2-yl)−2-(4-isobutylphenyl)propanamide], the “inhibition of AA cyclooxygenation by COX-1” value was “modest inhibition” at ovine COX-1 [3] (10 µM compound); “complete inhibition” at ovine COX-1 [3] (50 and 100 µM compound). In addition, at human recombinant COX-2 [4] (10 µM compound, 10 µM 2-AG), the “inhibition of 2-AG cyclooxygenation by COX-2” value is given as “greatly reduced; also recorded: almost completely inhibited”. In addition, the “inhibition of AA cyclooxygenation by COX-2” value is “did not inhibit” at human recombinant COX-2 [4] (10 µM compound); “did not inhibit” at human recombinant COX-2 [4] (50 and 100 µM compound). The pIC50 on rat brain FAAH [1] was 7.08. Moreover, the “mode of inhibition of FAAH” value at rat brain FAAH [1] (60 min preincubation, 20-fold dilution, kinetic experiments) is listed as “reversible, mixed-type mechanism of inhibition; also recorded: reversible mixed inhibitor”. Besides, the “time-dependence of the inhibition” value on rat brain FAAH [1] (preincubation with homogenates for up to 60 min prior to addition of substrate) is recorded as “no time-dependence of the inhibition”. Besides, on rat brain FAAH [5], the negative logarithm of the Ki (pKi) was 6.59. In addition, on rat brain FAAH [5], the “α value (ratio of the Ki intercept: Ki slope values)” value is on record as 4.9.
Consider `Cc1ccccc1NC(=O)C(C)c1ccc(CC(C)C)cc1` (centres unmarked) [Ibu-AM38, 2–(4-Isobutylphenyl)-N-(o-tolyl)propanamide], for which the pIC50 at rat brain FAAH [1] was 5.70.
Turning to `CCCCCCNC(=O)Oc1cccc(-c2ccc(C(C)C(=O)O)cc2F)c1` (racemic) [ARN2508, (±)−2-[3-fluoro-4-[3-(hexylcarbamoyloxy)phenyl]phenyl]propanoic acid], the pIC50 in the data set on FAAH was 7.51; in the data set with COX-2, 6.38; with COX-1, 7.92. In addition, the “anti-inflammatory effects in vivo” value in data set [6] is listed as “produced anti-inflammatory effects in vivo”. In addition, the gastric irritation entry in [6] (in vivo) was “without causing gastric irritation”.
In turn, `CC(C)Cc1ccc(C(C)C(=O)Nc2ncccc2C(F)(F)F)cc1` (centres unmarked) [Ibu-AM60, 2-(4-Isobutylphenyl)-N-(3-(trifluoromethyl)pyridin-2-yl)propanamide] registered a melting point of 112 to 114 °C. In addition, at rat brain FAAH [1], the pIC50 is 6.44.
As for `CC(C)Cc1ccc(C(C)C(=O)Nc2ccccc2O)cc1` (centres unmarked) [Ibu-AM59, N-(2-Hydroxyphenyl)-2-(4-isobutylphenyl)propanamide], the pIC50 at rat brain FAAH [1] is 5.07.
`CC(C)Cc1ccc(C(C)C(=O)Nc2ncccc2Cl)cc1` (centres unmarked) [Ibu-AM58, N-(3-Chloropyridin-2-yl)-2-(4-isobutylphenyl)propanamide]: the pIC50 on rat brain FAAH [1] was 6.04.
In the case of “2–(4-isobutylphenyl)-N-(3-methylpyridin-2-yl)propenamide [Ibu-AM5]”, at human recombinant COX-2 [7] (100 µM Ibu-AM5), the “effect upon COX-2 with AA as substrate” value is “without effect”. Moreover, the pIC50 at human recombinant COX-2 [7] (read-out: concentration reducing the rate of cyclooxygenation to about half, COX-2, AEA as substrate) is approximately 5.52; at ovine COX-1 [8] it was approximately 4.30. The “analgesic activity, acetic acid-induced visceral nociception” value in [9] is “analgesic activity”. Besides, in data set [10], the ulcerogenic potency entry is listed as “without appreciable ulcerogenic potency”.
Take `Cc1cccnc1NC(=O)C(C)(C)c1ccc(CC(C)C)cc1` [Ibu-AM72, 2-(4-Isobutylphenyl)-2-methyl-N-(3-methylpyridin-2-yl)propanamide]: at rat brain FAAH [1], the pIC50 is 6.00.
For `CC(C)Cc1ccc(C(C)C(=O)Nc2ccc(O)cc2)cc1` (centres unmarked) [Ibu-AM65, N-(4-Hydroxyphenyl)-2-(4-isobutylphenyl)propanamide], the pIC50 on rat brain FAAH [1] was 5.42.
`COc1ccc(NC(=O)C(C)c2ccc(CC(C)C)cc2)c(C)c1` (centres unmarked) [Ibu-AM67, 2-(4-Isobutylphenyl)-N-(4-methoxy-2-methylphenyl)propanamide] registered a melting point of 100 to 102 °C. The pIC50 on rat brain FAAH [1] is 5.10.
Take `Cc1cc(O)ccc1NC(=O)C(C)c1ccc(CC(C)C)cc1` (centres unmarked) [Ibu-AM66, N-(4-Hydroxy-2-methylphenyl)-2-(4-isobutylphenyl)propanamide]: the melting point was 133 to 135 °C. Besides, the pIC50 on rat brain FAAH [1] is 6.46.

A word on the pKi: it is the Ki on a negative log10 scale, so that one unit is a factor of ten. A higher pKi goes with a low Ki. As a reminder, the melting point is the temperature, or range, at which the solid turns liquid.
